# Measured values taken from US20240199648A1, “MAP4K1 INHIBITORS” (Blueprint Medicines Corporation, priority 2021, published 2024).
# Where two headings read alike, the source gives them in different places.
# What was measured:
# [1] = test system: Primary T Cell; experiment: T cell enhancement of cytokines: IL2 measurement (HTRF) in expanded CD3+ T cells stimulated with anti-CD3/anti-CD28; format: cell-based, human; settings: plate-bound anti-CD3 and soluble anti-CD28, 24 h, read-out: IL-2 Primary T Cell EC50
# Description: T cells are isolated from whole blood of healthy donors by immunomagnetic negative selection following manufacture's protocol (StemCell Technologies, human T cell isolation kit). Purity of isolated cells is assessed by flow cytometry and yields 95-98% CD3^+ T cells. For expansion of T cells, 1×10^6 cells/well are plated in serum free cell expansion media (ThermoFisher) containing 30U of recombinant human IL2 (R&D) and stimulated with 25 ul of CD3/CD28 beads (Invitrogen) in 24 well plates for 3-4 days. T cells are then expanded in 175 cm flasks and maintained at a cell density of 1 to 2.5×10^6 cells/ml days by addition of ⅔ of fresh media every 2-3 days. After 10-14 days, cells are frozen in BamBanker freezing media (Thermo) and stored in liquid nitrogen.
# For IL2 measurement, expanded CD3+ T cells are dispensed at 100K cells/well (cultured in X-VIVO 10 Serum-free media) and are stimulated with plate-bound anti-CD3 and soluble anti-CD28 in the presence of vehicle or compound of the disclosure at various concentrations for 24 h. As outlined in the manufacturer's protocol (Cisbio), 16 μL of conditioned media is transferred to a white 384-well low volume plate. Following a 24 h incubation with the anti-IL2 antibodies, the homogenous time resolved fluorescence (HTRF) is measured.
# [2] = target: T1, MAP4K1 (HPK1) (Homo sapiens, UniProt Q92918); experiment: Inhibition of MAP4K1 biochemical enzymatic activity (EZReader 2 electrophoretic mobility shift assay); settings: HPK1 (Invitrogen), S6K2tide 1.5 μM, 120 min; ATP 26 μM or 1000 μM (not stated which)
# T1 construct: purchased Invitrogen
# T1 sequence (Q92918 whole entry): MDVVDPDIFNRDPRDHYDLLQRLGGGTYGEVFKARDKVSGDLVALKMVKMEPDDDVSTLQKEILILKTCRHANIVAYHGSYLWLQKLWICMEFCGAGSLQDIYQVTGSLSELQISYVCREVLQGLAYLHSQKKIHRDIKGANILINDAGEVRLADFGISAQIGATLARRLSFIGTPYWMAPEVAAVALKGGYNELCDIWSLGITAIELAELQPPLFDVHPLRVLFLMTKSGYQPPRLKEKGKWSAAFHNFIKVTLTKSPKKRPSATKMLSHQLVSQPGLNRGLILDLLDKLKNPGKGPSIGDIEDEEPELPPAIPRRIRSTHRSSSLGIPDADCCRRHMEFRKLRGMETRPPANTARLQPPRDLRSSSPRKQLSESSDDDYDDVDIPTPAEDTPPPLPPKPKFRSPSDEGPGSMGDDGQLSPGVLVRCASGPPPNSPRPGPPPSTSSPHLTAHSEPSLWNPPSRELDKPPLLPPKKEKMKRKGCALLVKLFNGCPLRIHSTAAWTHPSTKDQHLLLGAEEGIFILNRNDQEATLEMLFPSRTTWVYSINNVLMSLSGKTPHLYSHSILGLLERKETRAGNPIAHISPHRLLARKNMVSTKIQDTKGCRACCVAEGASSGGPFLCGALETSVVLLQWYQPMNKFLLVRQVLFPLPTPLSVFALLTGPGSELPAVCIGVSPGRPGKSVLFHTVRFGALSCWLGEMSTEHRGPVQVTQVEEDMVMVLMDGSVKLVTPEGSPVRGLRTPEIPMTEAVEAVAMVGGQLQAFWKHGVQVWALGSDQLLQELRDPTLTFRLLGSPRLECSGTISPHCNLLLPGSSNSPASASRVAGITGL
# From the text: MAP4K1 (HPK1) and relevant off-target enzymatic activity was monitored using the Perkin Elmer electrophoretic mobility shift technology platform—the EZReader 2. […] Within the linear, steady-state phase of the kinase enzymatic reaction, the mixed pool of phosphorylated (product) and non-phosphorylated (substrate) peptides was passed through the microfluidic system of the PerkinElmer EZ Reader 2, under an applied electric potential difference. The presence of the phosphate group on the product peptide provided a difference in mass and charge between that of the substrate peptide, resulting in a separation of the substrate and product pools in the sample (Perrin et al. 2010). As the product and substrate peptide mixture passes the lasers within the instrument, these pools are detected (λex=488 nm, λem=568 nm) and resolved as separate peaks. The ratio between these peaks reflects the activity of the compound at that concentration, in that well, under those conditions.
# Inhibitors were dissolved in 100% DMSO at a stock concentration of 10 mM. A 100×, 10-point, 4-fold serial dilution of each inhibitor was created in 100% DMSO either manually or on a Hamilton STAR liquid handler, starting at a relevant concentration, usually 1 mM. A volume of 0.130 μL of each concentration was transferred to the relevant wells of a 384-well plate (Greiner 781 201) in diplicate using a TTPLabtech Mosquito nano-litre dispenser. Using a Multidrop Combi, the remaining constituents of the kinase reaction were added to the 130 nL of dosed compound as follows (see table below for final reaction details):
# Enzyme activity assays at the ^APPKM for ATP or 1 mM ATP: In each well of a 384-well plate, 0.1-15 nM of untreated enzyme was incubated in a total of 13 μL of buffer (100 mM HEPES pH 7.5, 0.015% Brij 35, 10 mM MgCl2, 1 mM DTT) with 1.5 μM fluorescent peptid and 20-1000 μM ATP, at 25° C., for 60-180 minutes in the presence or absence of a dosed concentration series of compound (1% DMSO final concentration). The kinase reactions were stopped by the addition of 70 μl of Stop buffer (100 mM HEPES pH 7.5, 0.015% Brij 35, 35 mM EDTA and 0.2% of Coating Reagent 3 (Caliper Lifesciences)). The plates were read on a Caliper EZReader 2 as described above.
SMILES,"EC50 ([1]; Homo sapiens, T-cell, 24 h)",IC50 [2],EC50 [1]
"CC[C@@H](N)c1cnc(OC2CN(C(=O)[C@@H]3C[C@@H]3F)C2)c2cnc(Nc3ccc4c(n3)[C@@H](C)C(C)(C)OC4=O)cc12 (single isomer, unassigned) [Compound 11, (R)-2-((5-((R)-1-aminopropyl)-8-((1-((1S,2S)-2-fluorocyclopropane-1-carbonyl)azetidin-3-yl)oxy)-2,7-naphthyridin-3-yl)amino)-7,7,8-trimethyl-7,8-dihydro-5H-pyrano[4,3-b]pyridin-5-one or (R)-2-((5-((S)-1-aminopropyl)-8-((1-((1S,2S)-2-fluorocyclopropane-1-carbonyl)azetidin-3-yl)oxy)-2,7-naphthyridin-3-yl)amino)-7,7,8-trimethyl-7,8-dihydro-5H-pyrano[4,3-b]pyridin-5-one]",38.6 nM,0.63 nM,
"CC[C@@H](N)c1ccc(OC2CN(C(=O)C3CC3)C2)c2cnc(Nc3ccc4c(n3)[C@@H](C)C(C)(C)OC4=O)cc12 (single isomer, unassigned) [Compound 40, (R)-2-((5-((R)-1-Aminopropyl)-8-((1-(cyclopropanecarbonyl)azetidin-3-yl)oxy)isoquinolin-3-yl)amino)-7,7,8-trimethyl-7,8-dihydro-5H-pyrano[4,3-b]pyridin-5-one or (R)-2-((5-((S)-1-aminopropyl)-8-((1-(cyclopropanecarbonyl)azetidin-3-yl)oxy)isoquinolin-3-yl)amino)-7,7,8-trimethyl-7,8-dihydro-5H-pyrano[4,3-b]pyridin-5-one]",160 nM,0.19 nM,
"C[C@@H]1c2nc(Nc3cc4c(C(C)(C)N)cnc(OC5CC(C)(C(=O)N(C)C)C5)c4cn3)ccc2C(=O)OC1(C)C (single isomer, unassigned) [Compound 81]",71.2 nM,0.16 nM,
"CC[C@@H](N)c1ccc(OC2CN(C(=O)[C@@H]3C[C@@H]3F)C2)c2cnc(Nc3ccc4c(n3)[C@@H](C)C(C)(C)OC4=O)cc12 (single isomer, unassigned) [Compound 83, (R)-2-((5-((R)-1-Aminopropyl)-8-((1-((1S,2S)-2-fluorocyclopropane-1-carbonyl)azetidin-3-yl)oxy)isoquinolin-3-yl)amino)-7,7,8-trimethyl-7,8-dihydro-5H-pyrano[4,3-b]pyridin-5-one or (R)-2-((5-((S)-1-aminopropyl)-8-((1-((1S,2S)-2-fluorocyclopropane-1-carbonyl)azetidin-3-yl)oxy)isoquinolin-3-yl)amino)-7,7,8-trimethyl-7,8-dihydro-5H-pyrano[4,3-b]pyridin-5-one]",,0.11 nM,23.8 nM
"COCC(C)(N)c1cnc(OC2CN(C(=O)C3CC3F)C2)c2cnc(Nc3ccc4c(n3)C(C)C(C)OC4=O)cc12 (single isomer, unassigned) [Compound 96]",,0.09 nM,10.3 nM
"COCC(C)(N)c1cnc(OC2CN(C(=O)C3CC3F)C2)c2cnc(Nc3ccc4c(n3)C(C)C(C)OC4=O)cc12 (single isomer, unassigned) [Compound 97]",,0.36 nM,50.1 nM
"CCC[C@@](C)(N)c1ncc(OC2CN(C(C)=O)C2)c2cnc(Nc3ccc4c(n3)CC(C)(C)OC4=O)cc12 (single isomer, unassigned) [Compound 112]",10.2 nM,0.24 nM,
"CCCC(C)(N)c1cnc(OC2CN(C(C)=O)C2)c2cnc(Nc3ccc4c(n3)[C@@H](C)[C@H](C)OC4=O)cc12 (single isomer, unassigned) [Compound 113]",7.4 nM,0.11 nM,
"CCCC(C)(N)c1cnc(OC2CN(C(C)=O)C2)c2cnc(Nc3ccc4c(n3)[C@@H](C)C(C)(C)OC4=O)cc12 (single isomer, unassigned) [Compound 115]",5.4 nM,0.1 nM,
"CC[C@H](N)c1cnc(O[C@H]2C[C@@H](C(=O)N3CC(OC)C3)C2)c2cnc(Nc3ccc4c(n3)[C@@H](C)C(C)(C)OC4=O)cc12 (single isomer, unassigned) [Compound 127]",74.2 nM,0.09 nM,
CC[C@@H](N)c1ccc(OC2CN(C(C)=O)C2)c2cnc(Nc3ccc4c(n3)[C@@H](C)C(C)(C)OC4=O)cc12 (stereo in doubt) [Compound 20],99.3 nM,0.26 nM,
CC[C@@H](N)c1cnc(OC2CN(C(=O)C3CC3)C2)c2cnc(Nc3ccc4c(n3)[C@@H](C)C(C)(C)OC4=O)cc12 (stereo in doubt) [Compound 53],57.4 nM,0.54 nM,
"CC(=O)N1CC(Oc2ncc(C(C)(C)N)c3cc(Nc4ccc5c(n4)[C@@H](C)[C@H](C)OC5=O)ncc23)C1 [Compound 1, (7S,8R)-2-((8-((1-acetylazetidin-3-yl)oxy)-5-(2-aminopropan-2-yl)-2,7-naphthyridin-3-yl)amino)-7,8-dimethyl-7,8-dihydro-5H-pyrano[4,3-b]pyridin-5-one]",34.7 nM,0.18 nM,
CC(=O)N1C[C@@H](Oc2ncc(C(C)(C)N)c3cc(Nc4ccc5c(n4)[C@@H](C)[C@H](C)OC5=O)ncc23)[C@@H]1C [Compound 3],33.5 nM,0.33 nM,
C[C@@H]1OC(=O)c2ccc(Nc3cc4c(C(C)(C)N)cnc(O[C@H]5C[C@@H](C(=O)N6CC(F)C6)C5)c4cn3)nc2[C@H]1C [Compound 84],,0.24 nM,
COC[C@@](C)(N)c1cnc(O[C@H]2CN(C(=O)C3CC3)[C@@H]2C)c2cnc(Nc3ccc4c(n3)[C@@H](C)[C@H](C)OC4=O)cc12 [Compound 89],,0.35 nM,
C[C@@H]1c2nc(Nc3cc4c(C(C)(C)N)cnc(OC5CN(C(=O)[C@@H]6CCCO6)C5)c4cn3)ccc2C(=O)OC1(C)C [Compound 90],,0.18 nM,
COC[C@@](C)(N)c1cnc(O[C@@H]2CN(C(=O)C3CC3)[C@H]2C)c2cnc(Nc3ccc4c(n3)[C@@H](C)[C@H](C)OC4=O)cc12 [Compound 91],,0.31 nM,
COC1(C(=O)N2CC(Oc3ncc(C(C)(C)N)c4cc(Nc5ccc6c(n5)[C@@H](C)C(C)(C)OC6=O)ncc34)C2)CC1 [Compound 93],,0.17 nM,
C[C@@H]1c2nc(Nc3cc4c(C(C)(C)N)cnc(O[C@H]5C[C@@H](C(=O)N6CC(F)C6)C5)c4cn3)ccc2C(=O)OC1(C)C [Compound 94],,0.14 nM,
C[C@@H]1OC(=O)c2ccc(Nc3cc4c(C(C)(C)N)cnc(O[C@H]5C[C@@H](C(=O)N6CC(F)(F)C6)C5)c4cn3)nc2[C@H]1C [Compound 98],,0.19 nM,
C[C@@H]1c2nc(Nc3cc4c(C(C)(C)N)cnc(OC5CN(C(=O)C6(C(F)(F)F)CC6)C5)c4cn3)ccc2C(=O)OC1(C)C [Compound 103],,0.24 nM,
CC(=O)N1CC(Oc2ncc(C(C)(C)N)c3cc(Nc4ccc5c(n4)CCOC5=O)ncc23)C1 [Compound 108],,2.86 nM,
CC(=O)N1CC(Oc2ncc(C(C)(C)N)c3cc(Nc4ccc5c(n4)C(C)(C)OC5=O)ncc23)C1 [Compound 109],,4 nM,
CC(=O)N1CC(Oc2ncc(C(C)(C)N)c3cc(Nc4ccc5c(n4)C(C)(C)COC5=O)ncc23)C1 [Compound 110],,0.62 nM,
C[C@@H]1c2nc(Nc3cc4c(C(C)(C)N)ccc(OCCOC(=O)N(C)C)c4cn3)ccc2C(=O)OC1(C)C [Compound 114],,0.07 nM,
CC(=O)N1CCC[C@@H]1COc1ncc(C(C)(C)N)c2cc(Nc3ccc4c(n3)[C@@H](C)C(C)(C)OC4=O)ncc12 [Compound 116],,1.13 nM,
CC(=O)N1CCC[C@H]1COc1ncc(C(C)(C)N)c2cc(Nc3ccc4c(n3)[C@@H](C)C(C)(C)OC4=O)ncc12 [Compound 117],,2.02 nM,
COC[C@@](C)(N)c1cnc(O[C@H]2C[C@H](C(=O)N(C)C)C2)c2cnc(Nc3ccc4c(n3)[C@@H](C)[C@H](C)OC4=O)cc12 [Compound 124],,0.26 nM,
